# Laboratory results taken from patent US20220031680A1, “Donecopride As Neuroprotective Agent In the Treatment of Neurodegenerative Diseases” (priority 2018, published 2022).
# Key:
# [1] = system: spinal motor neurons injured with glutamate; test: Survival and neurite network of primary spinal motor neurons after glutamate injury; type: cell-based, rat; details: glutamate 5 μM 20 min
# Procedure: (§1) Rat spinal cord motor neurons (MNs) were cultured as described by Martinou et al. (1992) Neuron. 8:737-744 and Wang et al. (2013) Hum. Mol. Genet. 22:4706-4719. Briefly, pregnant female rats of 14 days gestation (Rats Wistar; Janvier Labs France) were killed using a deep anesthesia with CO2 chamber and a cervical dislocation. Then, fetuses were removed from the uterus and immediately placed in ice-cold L15 Leibovitz medium with a 2% penicillin (10,000 U/ml) and streptomycin (10 mg/ml) solution (PS) and 1% bovine serum albumin (BSA).
# Spinal cords were treated for 20 min at 37° C. with a trypsin-EDTA solution at a final concentration of 0.05% trypsin and 0.02% EDTA. The dissociation was stopped by addition of Dulbecco's modified Eagle's medium (DMEM) with 4.5 g/I glucose, containing DNAse I grade II (final concentration 0.5 mg/ml) and 10% fetal calf serum (FCS). Cells were mechanically dissociated by three forced passages through the tip of a 10-ml pipette. Cells were then centrifuged at 515×g for 10 min at 4° C. The supernatant was discarded, and the pellet was resuspended in a defined culture medium consisting of Neurobasal medium with a 2% solution of B27 supplement, 2 mmol/I L-glutamine, 2% PS solution, and 10 ng/ml brain-derived neurotrophic factor (BDNF). Viable cells were counted in a Neubauer cytometer, using the trypan blue exclusion test. Cells were seeded at a density of 20,000 per well in 96-well plates precoated with poly-L-lysine and were cultured at 37° C. in an air (95%)-CO2 (5%) incubator.
# The medium was changed every 2 days. […]
# (§2) Test compounds were tested in 96-well plate (n=6 culture wells per condition). The following conditions were assessed: […]
# (§3) The following endpoints were automatically assessed: • Analysis of neuron survival (MAP-2 staining, number of neurons), • Analysis of neurite network (MAP-2 staining, total neurite length in μm), • Analysis of neurite network/neurons (neuronal network/number of MAP2 neurons), • Analysis of cytoplasmic TDP-43 in MAP-2 positive neurons (overlapping between MAP-2 and cytoplasmic TDP-43 in μm^2).
# TDP-43 = test: Cytoplasmic TDP-43 in spinal motor neurons after glutamate injury; type: cell-based, rat; details: glutamate 5 μM 20 min; highest dose
# Procedure: as §1
# Spinal cords were treated for 20 min at 37° C. with a trypsin-EDTA solution at a final concentration of 0.05% trypsin and 0.02% EDTA. […] Viable cells were counted in a Neubauer cytometer, using the trypan blue exclusion test. […]
# as §2, §3
# [2] = system: rat primary GABAergic neurons under a growth factor deprivation; test: Survival of GABAergic neurons after growth factor deprivation; type: cell-based; details: BDNF and GDNF deprivation 96 h
# Procedure: The aim of this study was to investigate the neuroprotective effect of MR33583 (at 4 concentrations) in MSN of striatum survival after growth factor deprivation (BDNF and GDNF deprivation), an in vitro model of Huntington's disease.
# Rat MSN of striatum were cultured as described by Ivkovic et al. (1999) J. Neurosci. 19:5409-5419 and Schinelli et al. (1988) J. Neurochem. 50:1900-1907. Briefly pregnant female rats of 15 days gestation were killed using a deep anesthesia with CO2 chamber and a cervical dislocation. Fetuses were collected and immediately placed in ice-cold L15 Leibovitz medium with a 2% penicillin (10,000 U/ml) and streptomycin (10 mg/ml) solution (PS) and 1% bovine serum albumin (BSA). Only a restricted ventral portion of the mesencephalic flexure was used for cell preparation as this is the region of the developing brain rich in MSN cells. These areas were treated for 20 min at 37° C. with a trypsin-EDTA solution at a final concentration of 0.05% trypsin and 0.02% EDTA. […] Viable cells were counted in a Neubauer cytometer using the trypan blue exclusion test. […]
# as §2
# The following read-out was investigated: Analysis of MSNs survival (GAD67 staining, number of GABAergic neurons).
Compound,concentrations significantly improving spinal motor neurons survival ([1]; 24 h),concentrations significantly protecting the neurite network ([1]; spinal motor neurons),ratio neurite network length/number of neurons ([1]; spinal motor neurons),dose reducing the signal of TDP43 in the cytoplasm of spinal motor neurons (TDP-43),concentration with significant neuroprotective effect (survival of GABAergic neurons) [2]
COc1cc(N)c(F)cc1C(=O)CCC1CCN(CC2CCCCCC2)CC1 [MR36014],1 nM,1 nM,not modified,,
COc1cc(N)c(F)cc1C(=O)CCC1CCN(CC2CCCC2)CC1 [MR33583],,,,100 nM,50 nM
